Values of other authors as cited in patent US9029427B2, “Controlled release solid preparation” (Asahi Kasei Chemicals Corporation, priority 2005, dated 2015).

Conditions: water

Row | SMILES | amount of solvent required for dissolving 1 g of solute
1 | CCOc1ccccc1C(N)=O [Ethenzamide] | ≥ 10000 cm^3
2 | O=C([O-])c1ccccc1O.[Na+] [sodium salicylate] | less than 1 cm^3
